From publication PMC6061170, “Synthesis and biological investigations of 3β-aminotropane arylamide derivatives with atypical antipsychotic profile” (Medicinal Chemistry Research, 2018)
Where a name gives a salt, the structure may show the parent alone. Read-outs that look alike come from different tables or passages of the source.

Assays:
[1] = target: T1, serotonin 5-HT2A receptors (Rattus norvegicus, UniProt P14842); test: Radioligand binding assay, 5-HT2A receptors
T1 construct: from tissue; host or cells: rat brain tissues

dopamine D2 receptors = dopamine D2 receptors (Rattus norvegicus, UniProt P61169); test: Radioligand binding assay, D2 receptors
[2] = target: T2, serotonin 5-HT1A receptors (Rattus norvegicus, UniProt P19327); test: Radioligand binding assay, 5-HT1A receptors
T2 construct: from tissue; host or cells: rat brain tissues
T2 sequence (P19327 1-422): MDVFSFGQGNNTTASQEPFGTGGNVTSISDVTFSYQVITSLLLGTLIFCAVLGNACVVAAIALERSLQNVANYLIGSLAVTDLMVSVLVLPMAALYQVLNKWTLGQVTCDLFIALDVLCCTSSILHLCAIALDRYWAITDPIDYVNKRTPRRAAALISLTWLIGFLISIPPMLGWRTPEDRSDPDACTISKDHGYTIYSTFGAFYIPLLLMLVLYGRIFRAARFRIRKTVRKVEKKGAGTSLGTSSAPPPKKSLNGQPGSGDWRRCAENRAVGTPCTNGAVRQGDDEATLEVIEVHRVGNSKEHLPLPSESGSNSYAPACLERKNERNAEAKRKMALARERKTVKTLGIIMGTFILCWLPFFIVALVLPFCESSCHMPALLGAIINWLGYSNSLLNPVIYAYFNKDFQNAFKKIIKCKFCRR
Procedure: All compounds were tested for their affinities for 5-HT1A, 5-HT2A, and D2 receptors according to previously described procedures (Stefanowicz et al. [2016]).
Competition binding studies were performed according to a previously described procedure in rat brain tissues (Stefanowicz et al. [2016]).

Albino Swiss mice [3] = test: Four-plate test; settings: 60 min before test
Albino Swiss mice [4] = test: Forced swim test; settings: last 4 min of session
[5] = rat brain tissues, read-out: 5-HT2A IC50 [nM] ± SEM
[6] = rat brain tissues, read-out: 5-HT2A Ki [nM] ± SEM
[7] = rat brain tissues, read-out: D2 IC50 [nM] ± SEM
[8] = rat brain tissues, read-out: 5-HT1A IC50 [nM] ± SEM
[9] = rat brain tissues, read-out: D2 Ki [nM] ± SEM
[10] = rat brain tissues, read-out: 5-HT1A Ki [nM] ± SEM

T1 sequence (P14842 whole entry): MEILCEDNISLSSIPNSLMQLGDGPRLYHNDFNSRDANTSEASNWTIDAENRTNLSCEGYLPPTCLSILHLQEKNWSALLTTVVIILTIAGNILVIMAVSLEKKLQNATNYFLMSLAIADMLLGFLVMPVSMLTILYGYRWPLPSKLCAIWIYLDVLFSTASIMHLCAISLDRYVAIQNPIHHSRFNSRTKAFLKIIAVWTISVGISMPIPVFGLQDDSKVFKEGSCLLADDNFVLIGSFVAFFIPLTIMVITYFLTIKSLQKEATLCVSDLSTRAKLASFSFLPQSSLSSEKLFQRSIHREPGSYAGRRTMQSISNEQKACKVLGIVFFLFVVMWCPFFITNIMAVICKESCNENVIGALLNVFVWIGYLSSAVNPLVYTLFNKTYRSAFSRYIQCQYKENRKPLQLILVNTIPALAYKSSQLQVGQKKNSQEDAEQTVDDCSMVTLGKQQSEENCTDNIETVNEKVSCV
Chain of dopamine D2 receptors (P61169 1-415 isoform P61169-2): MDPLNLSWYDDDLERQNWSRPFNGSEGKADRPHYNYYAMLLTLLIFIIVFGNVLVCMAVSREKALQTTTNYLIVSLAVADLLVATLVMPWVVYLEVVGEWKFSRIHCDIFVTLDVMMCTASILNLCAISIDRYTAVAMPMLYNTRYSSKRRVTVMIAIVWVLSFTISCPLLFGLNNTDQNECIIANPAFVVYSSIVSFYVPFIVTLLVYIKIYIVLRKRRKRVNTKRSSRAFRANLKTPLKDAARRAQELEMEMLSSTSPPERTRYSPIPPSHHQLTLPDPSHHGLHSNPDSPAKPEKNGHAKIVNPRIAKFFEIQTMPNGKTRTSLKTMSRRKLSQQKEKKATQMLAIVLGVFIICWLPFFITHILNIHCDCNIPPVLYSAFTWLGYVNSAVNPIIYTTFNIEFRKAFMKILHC

SMILES | melting point [°C] | IC50 [1, 5] [nM] | Ki [1, 6] [nM] | Ki (dopamine D2 receptors) [nM] | IC50 (dopamine D2 receptors; [7]) [nM] | Ki [2] [nM] | IC50 [2, 8] [nM] | Ki (dopamine D2 receptors; [9]) [nM] | Ki [2, 10] [nM] | IC50 [1] [nM] | Ki [1] [nM] | IC50 (dopamine D2 receptors) [nM] | IC50 [2] [nM] | Number of punished crossings /1 min Mean ± SEM (Albino Swiss mice [3]; diazepam 1.25 mg/kg) | Number of punished crossings /1 min Mean ± SEM (Albino Swiss mice [3]; diazepam 2.5 mg/kg) | Number of punished crossings /1 min Mean ± SEM (Albino Swiss mice [3]; diazepam 5 mg/kg) | Immobility time (s) Mean ± SEM (Albino Swiss mice [4]; 5 mg/kg i.p. 30 min before test) [s] | Immobility time (s) Mean ± SEM (Albino Swiss mice [4]; 20 mg/kg i.p. 30 min before test)
Cc1ccc(CN2C3CCC2CC(NC(=O)c2ccc4ccccc4n2)C3)cc1 (stereo not drawn) (as salt: oxalate) [Compound 12i, N-[8-(4-methylbenzyl)-8-azabicyclo[3.2.1]oct-3β-yl)]-quinoline-2-carboxamide oxalate] | 215 to 215.4 |  |  |  |  |  |  |  |  |  |  |  |  |  |  |  |  | 
Cc1ccccc1CN1C2CCC1CC(NC(=O)c1ccc3ccccc3n1)C2 (stereo not drawn) [Compound 12a] | 120.8 to 121.4 | > 10000 | > 10000 | 52 ± 4 | 263 ± 20.5 | 46.6 ± 2.2 | 140 ± 6.7 |  |  |  |  |  |  |  |  |  |  | 
Cc1ccccc1CN1C2CCC1CC(NC(=O)c1cnc3ccccc3c1)C2 (stereo not drawn) [Compound 12b] | 179.2 to 180.2 | 3780 ± 348 | 1030 ± 94 |  | 1630 ± 23 | 81.5 ± 5 | 244 ± 14.9 | 326 ± 4.5 |  |  |  |  |  |  |  |  |  | 
Cc1ccccc1CN1C2CCC1CC(NC(=O)c1ccc3ncccc3c1)C2 (stereo not drawn) [Compound 12c] | 211.4 to 212.7 | > 10000 | > 10000 |  | 1270 ± 63 |  | 1350 ± 159 | 254 ± 12.8 | 450 ± 53 |  |  |  |  |  |  |  |  | 
Cc1cccc(CN2C3CCC2CC(NC(=O)c2cnc4ccccc4c2)C3)c1 (stereo not drawn) [Compound 12f] | 194 to 194.7 | 5290 ± 148 | 1440 ± 40.5 |  | 2730 ± 202 | 84.5 ± 3.4 | 255 ± 9.6 | 546 ± 40.2 |  |  |  |  |  |  |  |  |  | 
Cc1cccc(CN2C3CCC2CC(NC(=O)c2ccc4ncccc4c2)C3)c1 (stereo not drawn) [Compound 12g] | 174.4 to 175.5 | > 10000 | > 10000 |  | 1370 ± 81.8 |  | 867 ± 29.7 | 275 ± 16.5 | 289 ± 9.9 |  |  |  |  |  |  |  |  | 
Cc1ccc(CN2C3CCC2CC(NC(=O)c2cnc4ccccc4c2)C3)cc1 (stereo not drawn) [Compound 12j] | 219.5 to 220.8 | > 10000 | > 10000 | 45.3 ± 7.5 | 227 ± 37.6 |  | 493 ± 44.5 |  | 164 ± 15 |  |  |  |  |  |  |  |  | 
Cc1ccc(CN2C3CCC2CC(NC(=O)c2ccc4ncccc4c2)C3)cc1 (stereo not drawn) [Compound 12k] | 211.9 to 213 | > 10000 | > 10000 | 34.2 ± 0.8 | 172 ± 5 |  | 1530 ± 58 |  | 511 ± 19 |  |  |  |  |  |  |  |  | 
O=C(NC1CC2CCC(C1)N2Cc1ccccn1)c1ccc2ccccc2n1 (stereo not drawn) [Compound 12l] | 150.2 to 151 | > 10000 | > 10000 |  | 3080 ± 350 |  | 665 ± 14.3 | 616 ± 70.3 | 221 ± 4.7 |  |  |  |  |  |  |  |  | 
O=C(NC1CC2CCC(C1)N2Cc1ccccn1)c1cnc2ccccc2c1 (stereo not drawn) [Compound 12m] | 169.4 to 170.5 | > 10000 | > 10000 |  | > 10000 |  | 850 ± 135 | > 10000 | 283 ± 45 |  |  |  |  |  |  |  |  | 
O=C(NC1CC2CCC(C1)N2Cc1ccccn1)c1ccc2ncccc2c1 (stereo not drawn) [Compound 12n] | 193.7 to 194.5 |  |  | > 10000 |  | > 10000 |  |  |  | > 10000 | > 10000 | > 10000 | > 10000 |  |  |  |  | 
COc1cc(C(=O)NC2CC3CCC(C2)N3Cc2ccccn2)nc2ccccc12 (stereo not drawn) [Compound 12o] | 132.5 to 133 | > 10000 | > 10000 |  | > 10000 |  | 453 ± 12.6 | > 10000 | 151 ± 4.1 |  |  |  |  |  |  |  |  | 
O=C(NC1CC2CCC(C1)N2Cc1cccnc1)c1ccc2ccccc2n1 (stereo not drawn) [Compound 12p] | 143 to 143.4 | > 10000 | > 10000 |  | 5440 ± 1030 |  | 3250 ± 122 | 1090 ± 205 | 1080 ± 40.5 |  |  |  |  |  |  |  |  | 
O=C(NC1CC2CCC(C1)N2Cc1cccnc1)c1cnc2ccccc2c1 (stereo not drawn) [Compound 12q] | 138.3 to 146.2 |  |  | > 10000 |  | > 10000 |  |  |  | > 10000 | > 10000 | > 10000 | > 10000 |  |  |  |  | 
O=C(NC1CC2CCC(C1)N2Cc1cccnc1)c1ccc2ncccc2c1 (stereo not drawn) [Compound 12r] | 158.3 to 162.5 |  |  | > 10000 |  | > 10000 |  |  |  | > 10000 | > 10000 | > 10000 | > 10000 |  |  |  |  | 
COc1cc(C(=O)NC2CC3CCC(C2)N3Cc2cccnc2)nc2ccccc12 (stereo not drawn) [Compound 12s] | 162.6 to 165.5 | > 10000 | > 10000 |  | > 10000 |  | 3750 ± 264 | > 10000 | 1250 ± 88 |  |  |  |  |  |  |  |  | 
O=C(NC1CC2CCC(C1)N2Cc1ccncc1)c1ccc2ccccc2n1 (stereo not drawn) [Compound 12t] | 143 to 145.7 | > 10000 | > 10000 |  | > 10000 |  | 2430 ± 31 | > 10000 | 809 ± 10.5 |  |  |  |  |  |  |  |  | 
O=C(NC1CC2CCC(C1)N2Cc1ccncc1)c1cnc2ccccc2c1 (stereo not drawn) [Compound 12u] | 69.5 to 72 |  |  | > 10000 |  | > 10000 |  |  |  | 4528 ± 22.5 | 1229 ± 6 | > 10000 | > 10000 |  |  |  |  | 
O=C(NC1CC2CCC(C1)N2Cc1ccncc1)c1ccc2ncccc2c1 (stereo not drawn) [Compound 12v] | 182 to 183.3 |  |  | > 10000 |  | > 10000 |  |  |  | > 10000 | > 10000 | > 10000 | > 10000 |  |  |  |  | 
COc1cc(C(=O)NC2CC3CCC(C2)N3Cc2ccncc2)nc2ccccc12 (stereo not drawn) [Compound 12w] | 52 to 55 | > 10000 | > 10000 |  | > 10000 |  | 942 ± 52.9 | > 10000 | 314 ± 18 |  |  |  |  |  |  |  |  | 
Nc1cccc(CN2C3CCC2CC(NC(=O)c2ccc4ccccc4c2)C3)c1 (stereo not drawn) [Compound 19b] | 165.4 to 166.6 | 766 ± 48.4 | 208 ± 13.2 |  | 1560 ± 19.9 |  | 862 ± 49.5 | 312 ± 3.9 | 286 ± 16.4 |  |  |  |  |  |  |  |  | 
Nc1ccc(CN2C3CCC2CC(NC(=O)c2ccc4ccccc4c2)C3)cc1 (stereo not drawn) [Compound 19c] | 201.6 to 208.8 | 4580 ± 199 | 1240 ± 54 |  | 682 ± 42.7 |  | 4040 ± 469 | 136 ± 8.5 | 1340 ± 156 |  |  |  |  |  |  |  |  | 
CN1C(=O)CN=C(c2ccccc2)c2cc(Cl)ccc21 [Diazepam, reference compound] |  |  |  |  |  |  |  |  |  |  |  |  |  | 5.8 ± 0.3; p < 0.01 crossings/1 min | 6.4 ± 0.5; p < 0.01 crossings/1 min | 6.6 ± 0.4; p < 0.05 F(3,36) = 6.455; p < 0.01 crossings/1 min |  | 
CN(C)CCCN1c2ccccc2CCc2ccccc21 [Imipramine, reference compound] |  |  |  |  |  |  |  |  |  |  |  |  |  |  |  |  | 170.42 ± 10.9 | 77.81 ± 12.2; p < 0.001 F(3,36) = 16.7570; p < 0.0001 s
